Results from ChEMBL document CHEMBL4376858, “Structure-Activity Relationships of Novel Thiazole-Based Modafinil Analogues Acting at Monoamine Transporters” (J Med Chem, 2020).

How the values were obtained:
[1] = target: Sodium-dependent dopamine transporter (Homo sapiens, UniProt Q01959); assay: Inhibition of wild type human dopamine transporter expressed in HEK293 cells assessed as inhibition of [3H]dopamine reuptake preincubated for 5 mins followed by [3H]dopamine addition and measured after 1 min by liquid scintillation analysis; assay type: cell-based
[2] = target: Sodium-dependent serotonin transporter (Homo sapiens, UniProt P31645); assay type: cell-based, HEK293
Description: Inhibition of wild type human SERT expressed in HEK293 cells assessed as inhibition of [3H]-5HT reuptake preincubated for 5 mins followed by [3H]5HT addition and measured after 1 min by liquid scintillation counting analysis

[3] = target: Sodium-dependent noradrenaline transporter (Homo sapiens, UniProt P23975); assay: Inhibition of wild type human NET expressed in HEK293 cells assessed as inhibition of [3H]-MPP+ reuptake preincubated for 5 mins followed by [3H]MPP+ addition and measured after 3 mins by liquid scintillation counting analysis; assay type: cell-based
Sequence of Sodium-dependent noradrenaline transporter (P23975 whole entry): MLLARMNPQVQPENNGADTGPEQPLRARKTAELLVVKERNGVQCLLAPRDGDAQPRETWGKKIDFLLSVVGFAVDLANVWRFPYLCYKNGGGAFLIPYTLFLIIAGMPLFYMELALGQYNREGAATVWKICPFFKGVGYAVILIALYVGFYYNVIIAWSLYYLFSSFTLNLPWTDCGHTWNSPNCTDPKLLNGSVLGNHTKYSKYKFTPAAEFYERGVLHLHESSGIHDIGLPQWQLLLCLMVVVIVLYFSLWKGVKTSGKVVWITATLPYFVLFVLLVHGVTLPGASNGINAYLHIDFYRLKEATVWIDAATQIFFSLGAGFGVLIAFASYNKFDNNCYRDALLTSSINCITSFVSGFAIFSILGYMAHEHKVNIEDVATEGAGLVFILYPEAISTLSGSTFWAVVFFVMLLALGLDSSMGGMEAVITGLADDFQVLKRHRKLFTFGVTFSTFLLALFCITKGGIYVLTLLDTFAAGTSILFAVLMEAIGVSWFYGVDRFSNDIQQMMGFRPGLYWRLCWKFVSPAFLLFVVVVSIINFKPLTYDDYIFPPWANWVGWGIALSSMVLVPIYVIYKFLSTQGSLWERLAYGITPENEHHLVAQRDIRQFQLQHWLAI

Sequence of Sodium-dependent serotonin transporter (P31645 whole entry): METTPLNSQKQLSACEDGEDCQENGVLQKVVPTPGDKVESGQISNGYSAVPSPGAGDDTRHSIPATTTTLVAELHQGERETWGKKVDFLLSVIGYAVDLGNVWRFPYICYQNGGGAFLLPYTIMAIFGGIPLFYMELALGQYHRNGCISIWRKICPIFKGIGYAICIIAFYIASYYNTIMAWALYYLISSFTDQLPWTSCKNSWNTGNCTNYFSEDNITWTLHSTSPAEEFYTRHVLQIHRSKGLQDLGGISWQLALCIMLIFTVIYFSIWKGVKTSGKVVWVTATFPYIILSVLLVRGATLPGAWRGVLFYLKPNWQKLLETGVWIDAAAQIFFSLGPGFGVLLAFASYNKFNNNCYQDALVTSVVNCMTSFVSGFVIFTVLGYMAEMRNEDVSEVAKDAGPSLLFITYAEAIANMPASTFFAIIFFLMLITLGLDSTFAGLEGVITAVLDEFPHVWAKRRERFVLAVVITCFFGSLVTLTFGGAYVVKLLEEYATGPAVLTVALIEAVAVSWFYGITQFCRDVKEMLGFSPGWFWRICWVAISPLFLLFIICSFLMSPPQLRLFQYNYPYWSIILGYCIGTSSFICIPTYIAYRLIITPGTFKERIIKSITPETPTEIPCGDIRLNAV
Sequence of Sodium-dependent dopamine transporter (Q01959 whole entry): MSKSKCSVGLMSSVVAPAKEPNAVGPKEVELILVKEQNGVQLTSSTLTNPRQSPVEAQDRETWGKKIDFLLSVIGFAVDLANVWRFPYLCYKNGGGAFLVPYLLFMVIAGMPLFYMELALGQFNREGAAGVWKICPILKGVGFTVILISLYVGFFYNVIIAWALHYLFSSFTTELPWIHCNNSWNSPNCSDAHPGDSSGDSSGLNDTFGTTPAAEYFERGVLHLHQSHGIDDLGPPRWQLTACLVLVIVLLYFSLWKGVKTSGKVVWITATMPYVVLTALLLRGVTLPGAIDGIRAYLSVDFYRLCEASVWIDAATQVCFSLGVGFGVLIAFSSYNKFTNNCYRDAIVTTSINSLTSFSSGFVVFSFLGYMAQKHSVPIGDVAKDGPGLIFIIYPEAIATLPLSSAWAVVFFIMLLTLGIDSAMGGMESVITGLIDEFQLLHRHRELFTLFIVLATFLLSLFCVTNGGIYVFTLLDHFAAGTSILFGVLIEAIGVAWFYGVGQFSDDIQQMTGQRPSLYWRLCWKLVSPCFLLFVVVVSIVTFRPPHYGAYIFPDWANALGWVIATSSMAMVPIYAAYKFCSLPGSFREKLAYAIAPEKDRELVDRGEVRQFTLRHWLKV

Row | Structure (SMILES) | IC50 ([1]; read-out: IC50) | IC50 ([2]; hek293) | IC50 ([3]; read-out: IC50) | IC50 ([3]; hek293) | IC50 ([1]; hek293) | IC50 ([2]; read-out: IC50)
1 | [O-][S@@+](Cc1cncs1)[C@H](c1ccccc1)c1ccc(Cl)cc1 | 3.6 µM | Not Active | 38.6 µM |  |  | 
2 | [O-][S@+](Cc1cncs1)C(c1ccc(Cl)cc1)c1ccc(Cl)cc1 | 37.8 µM | Not Active |  | Not Active |  | 
3 | [O-][S+](Cc1csc(C2CC2)n1)C(c1ccc(Cl)cc1)c1ccc(Cl)cc1 (centres undefined) | 14 µM | Not Active |  | Not Active |  | 
4 | [O-][S@+](Cc1cncs1)[C@@H](c1ccccc1)c1ccc(F)cc1 | 27.8 µM | Not Active |  | Not Active |  | 
5 | [O-][S@@+](Cc1cncs1)[C@@H](c1ccccc1)c1ccc(Cl)cc1 | 2.3 µM | Not Active | 72 µM |  |  | 
6 | Cc1nc(CSC(c2ccccc2)c2ccccc2)cs1 | 91.4 µM | Not Active | 130 µM |  |  | 
7 | Cc1ccc(C(c2ccc(C)cc2)[S+]([O-])Cc2nccs2)cc1 (centres undefined) | 29.4 µM | Not Active |  | Not Active |  | 
8 | COc1ncc(C[S+]([O-])C(c2ccccc2)c2ccccc2)s1 (centres undefined) | 72.5 µM | Not Active | 139 µM |  |  | 
9 | [O-][S@@+](Cc1cncs1)[C@H](c1ccccc1)c1ccc(Br)cc1 | 4.2 µM | Not Active | 67.8 µM |  |  | 
10 | Cc1ncsc1C[S+]([O-])C(c1ccccc1)c1ccccc1 (centres undefined) | 44.1 µM | Not Active |  | Not Active |  | 
11 | [O-][S+](Cc1cscn1)C(c1ccc(F)cc1)c1ccc(F)cc1 (centres undefined) | 6.76 µM | Not Active |  | Not Active |  | 
12 | [O-][S@+](Cc1cncs1)[C@H](c1ccccc1)c1ccc(C(F)(F)F)cc1 |  | Not Active |  | Not Active | Not Active | 
13 | [O-][S+](Cc1cscn1)C(c1ccccc1)c1ccccc1 (racemic) | 6.66 µM | Not Active |  | Not Active |  | 
14 | [O-][S@+](Cc1cncs1)[C@H](c1ccccc1)c1ccc(Cl)cc1 | 7.4 µM |  | 36.5 µM |  |  | 140 µM
15 | [O-][S@+](Cc1cncs1)[C@@H](c1ccccc1)c1ccc(C(F)(F)F)cc1 |  | Not Active |  | Not Active | Not Active | 
16 | [O-][S+](Cc1cscn1)C(c1ccccc1)c1ccc(Br)cc1 (racemic) | 1.85 µM | Not Active | 109 µM |  |  | 

Row | Structure (SMILES) | IC50 ([1]; read-out: IC50) | IC50 ([2]; hek293) | IC50 ([3]; read-out: IC50) | IC50 ([3]; hek293) | IC50 ([1]; hek293) | IC50 ([2]; read-out: IC50)
17 | COc1ccc([C@H](c2ccccc2)[S@@+]([O-])Cc2cncs2)cc1 | 3.8 µM | Not Active | 196 µM |  |  | 
18 | [O-][S+](Cc1cncs1)C(c1ccc(F)cc1)c1ccc(F)cc1 (racemic) | 6.21 µM | Not Active | 121 µM |  |  | 
19 | [O-][S@@+](Cc1cncs1)[C@H](c1ccccc1)c1ccc(C(F)(F)F)cc1 | 37.7 µM | Not Active |  | Not Active |  | 
20 | [O-][S@@+](Cc1cncs1)C(c1ccc(F)cc1)c1ccc(F)cc1 | 5.3 µM | Not Active | 85 µM |  |  | 
21 | [O-][S+](Cc1nccs1)C(c1ccc(Cl)cc1)c1ccc(Cl)cc1 (centres undefined) | 9.58 µM | Not Active |  | Not Active |  | 
22 | CCCCc1nc(C[S+]([O-])C(c2ccccc2)c2ccccc2)cs1 (centres undefined) | 13.5 µM | Not Active | 164 µM |  |  | 
23 | [O-][S@@+](Cc1cncs1)C(c1ccc(Cl)cc1)c1ccc(Cl)cc1 | 4.1 µM | Not Active | 89.8 µM |  |  | 
24 | [O-][S+](Cc1cnc(C23CC4CC(CC(C4)C2)C3)s1)C(c1ccccc1)c1ccccc1 (centres undefined) |  | Not Active |  |  |  | 
25 | [O-][S+](Cc1nccs1)C1c2ccccc2-c2ccccc21 (centres undefined) |  | Not Active |  | Not Active | Not Active | 
26 | [O-][S+](Cc1cscn1)C(c1ccc(Cl)cc1)c1ccc(Cl)cc1 (centres undefined) | 5.04 µM | Not Active | 107 µM |  |  | 
27 | [O-][S+](Cc1csc(-c2cccs2)n1)C(c1ccccc1)c1ccccc1 (racemic) | 6.97 µM | Not Active | 111 µM |  |  | 
28 | [O-][S@+](Cc1cncs1)[C@@H](c1ccccc1)c1ccc(Cl)cc1 | 33 µM | Not Active |  | Not Active |  | 
29 | COc1ccc([C@@H](c2ccccc2)[S@@+]([O-])Cc2cncs2)cc1 | 12.2 µM |  |  | Not Active |  | 363 µM
30 | COc1ccc([C@H](c2ccccc2)[S@+]([O-])Cc2cncs2)cc1 | 65.1 µM | Not Active |  | Not Active |  | 
31 | Cc1ccc(C(c2ccc(C)cc2)[S+]([O-])Cc2cscn2)cc1 (centres undefined) | 7.32 µM | Not Active |  | Not Active |  | 
32 | Cc1ccc([C@H](c2ccccc2)[S@@+]([O-])Cc2cncs2)cc1 | 3.3 µM | Not Active | 164 µM |  |  | 
